Assay results taken from ChEMBL document CHEMBL3832761, “MMV Pathogen Box Bioactivity Data” (2017).
≈ marks a conversion by molar mass, not a printed value.

What was measured:
Format in all cases: functional
[1] = test system: Mycobacterium tuberculosis; assay: AntiMycobacterium tuberculosis activity 1-week 7H9/cholesterol/BSA/Tx MIC (uM); conditions: 168 h
[2] = test system: Mycobacterium tuberculosis; assay: AntiMycobacterium tuberculosis activity 1-week 7H9/glucose/BSA/Tx MIC (uM); conditions: 168 h
[3] = test system: HepG2; assay: HepG2 CC50 (uM) Cytotoxicity; conditions: Homo sapiens
[4] = test system: Mycobacterium tuberculosis; assay: (§1) AntiMycobacterium tuberculosis activity day 10 in 7H9/2.5mM butyrate/pH6/0.1mM nitrite MIC90 (uM); conditions: 240 h
[5] = test system: Mycobacterium tuberculosis; assay: AntiMycobacterium tuberculosis activity 1-week 7H9/DPPC/cholesterol/BSA/Tx MIC (uM); conditions: 168 h
[6] = test system: Mycobacterium tuberculosis; assay: AntiMycobacterium tuberculosis activity 2-week Alamar Blue 7H9/cholesterol/BSA/Tx MIC (uM); conditions: 336 h
[7] = test system: Mycobacterium tuberculosis; assay: AntiMycobacterium tuberculosis activity 2-week 7H9/glucose/BSA/Tx MIC (uM); conditions: 336 h
[8] = test system: Mycobacterium tuberculosis; assay: AntiMycobacterium tuberculosis activity 2-week Alamar Blue 7H9/ADC/Tw MIC (uM); conditions: 336 h
[9] = test system: Mycobacterium tuberculosis; assay: AntiMycobacterium tuberculosis activity 2-week GAST/Fe MIC (uM); conditions: 336 h
[10] = test system: Mycobacterium tuberculosis; assay: AntiMycobacterium tuberculosis activity Non-Replicating form: Average MIC90 (uM)
[11] = test system: Mycobacterium tuberculosis; assay: AntiMycobacterium tuberculosis activity day 21 MIC99 in 7H9/2.5mM butyrate/pH6/0.1mM nitrite MIC99 (uM); conditions: 504 h
[12] = test system: Mycobacterium tuberculosis; assay: AntiMycobacterium tuberculosis activity 2-week 7H9/DPPC/cholesterol/BSA/Tx MIC (uM); conditions: 336 h
[13] = test system: Mycobacterium tuberculosis; assay: AntiMycobacterium tuberculosis activity 1-week 7H9/ADC/Tw MIC (uM); conditions: 168 h
[14] = test system: Mycobacterium tuberculosis; assay: AntiMycobacterium tuberculosis activity 2-week 7H9/ADC/Tw MIC (uM); conditions: 336 h
[15] = test system: Mycobacterium tuberculosis; assay: AntiMycobacterium tuberculosis activity day 21 in 7H9/2.5mM butyrate/pH6/0.1mM nitrite MIC90 (uM); conditions: 504 h
[16] = test system: Mycobacterium tuberculosis; assay: as §1; conditions: 240 h; remark: listed apart in the source
[17] = test system: Mycobacterium tuberculosis; assay: AntiMycobacterium tuberculosis activity Replicating form: Average MIC90 (uM)
[18] = test system: Mycobacterium tuberculosis; assay: AntiMycobacterium tuberculosis activity 1-week GAST/Fe MIC (uM); conditions: 168 h

Structure (SMILES) | MIC [1] [µM] | MIC [2] [µM] | CC50 [3] [µM] | MIC90 [4] [µM] | MIC [5] [µM] | MIC [6] [µM] | MIC [7] [µM] | MIC [8] [µM] | MIC [9] [µM] | MIC90 [10] [µM] | MIC [11] [µM] | MIC [12] [µM] | MIC [13] [µM] | MIC [14] [µM] | MIC90 [15] [µM] | MIC90 [16] [µM] | MIC90 [17] [µM] | MIC [18] [µM]
O=C1O[C@@H](CO)CN1c1cc(F)c(C2=CCN(Cc3ccccc3)CC2)c(F)c1 | 4.7 (≈ 1.88 µg/mL) | 4.7 (≈ 1.88 µg/mL) | 38.8 | > 50 | 9.4 (≈ 3.76 µg/mL) | 4.7 (≈ 1.88 µg/mL) | 4.7 (≈ 1.88 µg/mL) | 3.13 (≈ 1.25 µg/mL) | 9.4 (≈ 3.76 µg/mL) | 19 (≈ 7.6 µg/mL) | > 50 | 9.4 (≈ 3.76 µg/mL) | 4.7 (≈ 1.88 µg/mL) | 4.7 (≈ 1.88 µg/mL) | 50 (≈ 20 µg/mL) | 50 (≈ 20 µg/mL) | 11.6 (≈ 4.65 µg/mL) | 9.4 (≈ 3.76 µg/mL)
CCOC(=O)NC(=O)c1ccsc1NC(=O)c1nc2ccccc2s1 | 0.05 (≈ 0.0188 µg/mL) | 0.2 (≈ 0.0751 µg/mL) | 47 | 0.19 (≈ 0.0713 µg/mL) | 0.1 (≈ 0.0375 µg/mL) | 0.1 (≈ 0.0375 µg/mL) | 0.2 (≈ 0.0751 µg/mL) | 0.15 (≈ 0.0563 µg/mL) | < 0.02 | 0.34 (≈ 0.128 µg/mL) | 0.09 (≈ 0.0338 µg/mL) | 0.1 (≈ 0.0375 µg/mL) | 0.2 (≈ 0.0751 µg/mL) | 0.15 (≈ 0.0563 µg/mL) | ≤ 0.04 | ≤ 0.04 | 0.69 (≈ 0.259 µg/mL) | < 0.02
NC(=O)c1cc(-c2ccsc2)ccc1OCCOc1ccccc1 | > 50 | > 50 | > 100 | > 50 | 12.5 (≈ 4.24 µg/mL) | 6.25 (≈ 2.12 µg/mL) | > 50 | 19 (≈ 6.45 µg/mL) | 0.6 (≈ 0.204 µg/mL) | 3.96 (≈ 1.34 µg/mL) | > 50 | > 50 | > 50 | > 50 | > 50 | > 50 | > 100 | 0.39 (≈ 0.132 µg/mL)
Cc1nc2ccccn2c1C(=O)NCc1ccc(Cl)cc1 | 9.4 (≈ 2.82 µg/mL) | 25 (≈ 7.49 µg/mL) | > 100 | > 50 | 2.3 (≈ 0.689 µg/mL) | 3.13 (≈ 0.938 µg/mL) | > 50 | 4.7 (≈ 1.41 µg/mL) | 0.07 (≈ 0.021 µg/mL) | 2 (≈ 0.6 µg/mL) | > 50 | 25 (≈ 7.49 µg/mL) | > 50 | > 50 | 50 (≈ 15 µg/mL) | 50 (≈ 15 µg/mL) | > 100 | 0.05 (≈ 0.015 µg/mL)
COc1ccc(-c2nc(-c3cccc(NC(=O)Cc4ccc(F)cc4)c3)no2)cc1OC | 0.6 (≈ 0.26 µg/mL) | 0.2 (≈ 0.0867 µg/mL) | > 100 | 3.12 (≈ 1.35 µg/mL) | 0.78 (≈ 0.338 µg/mL) | 0.6 (≈ 0.26 µg/mL) | 0.2 (≈ 0.0867 µg/mL) | 0.39 (≈ 0.169 µg/mL) | 1.56 (≈ 0.676 µg/mL) | 1.61 (≈ 0.698 µg/mL) | 6.25 (≈ 2.71 µg/mL) | 0.78 (≈ 0.338 µg/mL) | 0.3 (≈ 0.13 µg/mL) | 0.39 (≈ 0.169 µg/mL) | 6.25 (≈ 2.71 µg/mL) | 3.12 (≈ 1.35 µg/mL) | 0.39 (≈ 0.169 µg/mL) | 1.56 (≈ 0.676 µg/mL)
O=C(C1CCN(c2nnc(-n3cccc3)s2)CC1)N1CCC(Cc2ccccc2)CC1 | 0.02 (≈ 0.00871 µg/mL) | 0.1 (≈ 0.0436 µg/mL) | > 100 | 0.78 (≈ 0.34 µg/mL) | 0.02 (≈ 0.00871 µg/mL) | 0.05 (≈ 0.0218 µg/mL) | 0.1 (≈ 0.0436 µg/mL) | 0.07 (≈ 0.0305 µg/mL) | 0.02 (≈ 0.00871 µg/mL) | 0.8 (≈ 0.348 µg/mL) | 0.78 (≈ 0.34 µg/mL) | 0.04 (≈ 0.0174 µg/mL) | 0.1 (≈ 0.0436 µg/mL) | 0.07 (≈ 0.0305 µg/mL) | 0.19 (≈ 0.0828 µg/mL) | 0.19 (≈ 0.0828 µg/mL) | 0.94 (≈ 0.409 µg/mL) | 0.02 (≈ 0.00871 µg/mL)
Cc1cc(NCCc2ccccc2)nc(NC(=N)Nc2ccc(Cl)cc2)n1 | 0.6 (≈ 0.229 µg/mL) | 1.2 (≈ 0.457 µg/mL) | 6.5 | 6.25 (≈ 2.38 µg/mL) | 0.6 (≈ 0.229 µg/mL) | 0.78 (≈ 0.297 µg/mL) | 1.2 (≈ 0.457 µg/mL) | 2.3 (≈ 0.876 µg/mL) | 0.78 (≈ 0.297 µg/mL) | 2.77 (≈ 1.06 µg/mL) | 3.12 (≈ 1.19 µg/mL) | 0.78 (≈ 0.297 µg/mL) | 1.2 (≈ 0.457 µg/mL) | 1.56 (≈ 0.594 µg/mL) | 3.12 (≈ 1.19 µg/mL) | 3.12 (≈ 1.19 µg/mL) | 1.15 (≈ 0.438 µg/mL) | 0.78 (≈ 0.297 µg/mL)
Cc1cc(OCC(=O)NCc2ccccc2)c2cc(Br)ccc2n1 | 2.3 (≈ 0.886 µg/mL) | 37 (≈ 14.3 µg/mL) | 31 | 25 (≈ 9.63 µg/mL) | 3.13 (≈ 1.21 µg/mL) | 1.56 (≈ 0.601 µg/mL) | 50 (≈ 19.3 µg/mL) | 4.7 (≈ 1.81 µg/mL) | 0.39 (≈ 0.15 µg/mL) | 21.2 (≈ 8.17 µg/mL) | > 50 | 25 (≈ 9.63 µg/mL) | 50 (≈ 19.3 µg/mL) | > 50 | 6.25 (≈ 2.41 µg/mL) | 1.5 (≈ 0.578 µg/mL) | > 100 | 0.2 (≈ 0.0771 µg/mL)
O=C(NCc1cc(Cl)cc(Cl)c1)c1c(C(F)(F)F)nc2ccccn12 | 2.3 (≈ 0.893 µg/mL) | > 50 | 38.3 | > 50 | 4.7 (≈ 1.82 µg/mL) | 1.2 (≈ 0.466 µg/mL) | > 50 | 12.5 (≈ 4.85 µg/mL) | 0.39 (≈ 0.151 µg/mL) | 2.93 (≈ 1.14 µg/mL) | > 50 | 12.5 (≈ 4.85 µg/mL) | 12.5 (≈ 4.85 µg/mL) | 37 (≈ 14.4 µg/mL) | 12.5 (≈ 4.85 µg/mL) | 1.5 (≈ 0.582 µg/mL) | > 100 | 0.1 (≈ 0.0388 µg/mL)
COc1cccc(OCC(=O)c2ccc(Br)cc2)c1 | 12.5 (≈ 4.01 µg/mL) | 19 (≈ 6.1 µg/mL) | > 100 | 25 (≈ 8.03 µg/mL) | 19 (≈ 6.1 µg/mL) | 50 (≈ 16.1 µg/mL) | 50 (≈ 16.1 µg/mL) | 25 (≈ 8.03 µg/mL) | 9.4 (≈ 3.02 µg/mL) | > 100 | 50 (≈ 16.1 µg/mL) | 50 (≈ 16.1 µg/mL) | 19 (≈ 6.1 µg/mL) | 50 (≈ 16.1 µg/mL) | 25 (≈ 8.03 µg/mL) | 12.5 (≈ 4.01 µg/mL) | > 100 | 9.4 (≈ 3.02 µg/mL)
CCOc1ccc(OCC(=O)Nc2cc(C)cc(C)c2)cc1 | 50 (≈ 15 µg/mL) | 50 (≈ 15 µg/mL) | > 100 | > 50 | 50 (≈ 15 µg/mL) | > 50 | > 50 | > 50 | 4.7 (≈ 1.41 µg/mL) | 65 (≈ 19.5 µg/mL) | > 50 | > 50 | ≥ 50 | > 50 | > 50 | > 50 | 82.3 (≈ 24.6 µg/mL) | 3.13 (≈ 0.937 µg/mL)
Nc1cccnc1Nc1ccc(Cl)cc1 | 9.4 (≈ 2.06 µg/mL) | 50 (≈ 11 µg/mL) | 9 | > 50 | 12.5 (≈ 2.75 µg/mL) | 4.7 (≈ 1.03 µg/mL) | 50 (≈ 11 µg/mL) | 37 (≈ 8.13 µg/mL) | 50 (≈ 11 µg/mL) | 3.65 (≈ 0.802 µg/mL) | > 50 | 19 (≈ 4.17 µg/mL) | > 50 | > 50 | 50 (≈ 11 µg/mL) | 12.5 (≈ 2.75 µg/mL) | 4.3 (≈ 0.945 µg/mL) | 50 (≈ 11 µg/mL)
